In article PMC10892451, “Evaluation of the Antibacterial Activity of New Dermaseptin Derivatives against Acinetobacter baumannii” (Pharmaceuticals, 2024):
Converted amounts (≈) assume the structure as drawn. Ends that are not written are not given here.

Tests used:
[1] = test system: A. baumannii clinical specimen MDR; assay: microbe, parasite or virus in culture; settings: for A. baumannii MIC: broth microdilution, Mueller-Hinton broth, 5 × 10^5 CFU/mL, 24 h at 37 °C, clinical MDR isolate, triplicate
Description: (§1) The bacterial strain used in the present study came from the stock culture of the microbiology laboratory of the Federal University of the Delta of Parnaíba—UFDPar, Parnaíba—PI, Brazil. The strain used in the tests was A. baumannii clinical specimen MDR (multidrug resistant), which developed resistance to major antibiotic classes and carbapenem-resistant isolates. Before performing all experiments, the selected strains were cultured in Petri dishes containing Mueller-Hinton agar (Difco™, Piaui, Brazil). Then, under aerobic conditions, they were incubated in a bacteriological oven for 24 h at 35 ± 2 °C. After incubation, the colonies that grew alone were collected with a disposable bacteriological loop and suspended in a sterile saline solution (0.85% NaCl (w/v), Parnaíba—UFDPar, Piaui, Brazil) in order to reach an absorbance pattern between 0.08 and 0.13 at 625 nm, as tested with a UV-vis spectrophotometer (Shimadzu, Japan), thus corresponding to 0.5 McFarland scale (1–2 × 10^8 CFU/mL), as recommended by the Clinical Laboratory Standards Institute CLSI [75]. Once standardized, the obtained bacterial suspension was used to prepare the bacterial inoculum used in the execution of MIC determination protocols.
(§2) In accordance with the standards recommended by CLSI [75], the antibacterial potential of the peptides was evaluated with the method of determining the MIC, i.e., the broth microdilution method. Using a 96-well microdilution plate (KASVI, Parnaíba, Brazil), the antibacterial effect was analyzed against the bacterial strains. Therefore, 5 μL of each peptide was added to the first line of the microtiter wells containing 195 μL Mueller-Hinton (M-H) broth (Life Technologies, New York, NY, USA), followed by two-fold serial dilutions with final concentrations ranging from 25 µg/mL to 0.19 µg/mL for all peptides. The volume of the bacterial inoculum was equal to 50 µL, which was added to the test wells with the M-H broth at the beginning of the experiment to give a final concentration of 5 × 10^5 CFU/mL and to reach a final volume of 100 μL in each well after discarding the last additional volume of 100 μL following the serial dilution. MIC was defined as the lowest concentration of an antibacterial agent expressed in μg/mL, which, under strictly controlled in vitro conditions, completely prevents visible bacterial growth after incubation for 24 h at 37 °C in aerobic conditions. […] All tests were performed in triplicate. In order to guarantee the quality and safety of the protocols of this study, the manipulation of bacterial strains was performed under aseptic conditions.

[2] = test system: A. baumannii clinical specimen MDR; assay: microbe, parasite or virus in culture; settings: for A. baumannii MBC: 10 μL of wells at or above MIC seeded onto Mueller-Hinton agar, clinical MDR isolate, triplicate
Description: After determining the MIC, the MBC was assessed against A. baumannii MDR. Meropenem was used as an antibacterial control drug. The loaded solvent saline served as a negative control. […] Meropenem targets Gram-positive and Gram-negative bacteria, as well as anaerobic bacteria. Similar to other carbapenems, meropenem disrupts the synthesis of bacterial cell walls, inhibiting growth and leading to cell death.
as §1, §2

HEp-2 cells [3] = settings: cited from earlier work
Description: (§3) Cells were exposed to increasing concentrations of peptides, ranging from 1.5 to 100 μg/mL. The cytotoxicity of DRSs was concentration dependent, and peptide 50% cytotoxic concentration (CC50) values were determined (Table 2).

[4] = cited from earlier work
[5] = cited from earlier work; remark: listed apart in the source
Description: as §3

[6] = test system: multi-drug resistant Salmonella Enteritidis; settings: cited from earlier work
HEp-2 cells [7] = assay: MTT cytotoxicity assay on HEp-2 cells; format: cell-based, human; settings: peptide concentration causing 50% cytotoxicity, 72 h treatment, 1.5-100 μg/mL, triplicate at three different times
Description: It was obtained from the American Type Culture Collection (ATCC, Manassas, VA, USA). Cells were routinely maintained in a humidified atmosphere of 5% CO2 at 37 °C. The Culture Medium Dulbecco’s Modified Eagle Medium (DMEM) (Biofaster, Tunis, Tunisia) was supplemented with 1% L-glutamine, 1% penicillin/streptomycin and 10% (v/v) heat inactivated fetal bovine serum (FBS)(Biofaster, Tunis, Tunisia).
The cytotoxicity test consisted of measuring the viability of cells in culture when they came into contact with the peptides being tested. Cytotoxicity was determined using the 3-(4,5-dimethylthiazol-2-yl)-2,5-diphenyl tetrazolium bromide (MTT) colorimetric assay on cultured cells (HEp-2 lines). […] After 72 h of incubation, the supernatant was collected and the viability of the cells treated with the peptides was determined by the MTT method. […] After 4 h of incubation at 37 °C, the optical density (OD) was measured at 570 nm using an ELISA reader (Multiskan EX, Labsystems, Paris, France), after adding 100 μL of DMSO to dissolve the crystals of formazan. The results were expressed as a percentage of viability relative to the negative control without a peptide, according to the formula: (Viability percentage = (DO544 nm peptide/DO544 nm control) × 100). […]

A. baumannii MDR = assay: AFM average surface roughness of treated bacteria; format: cell-based, Acinetobacter baumannii; settings: AFM tapping mode, bacteria from MIC assay wells after 24 h, n = 10 areas of 0.3 × 0.3 µm; non-treated bacteria 25.77 nm
Text: In order to understand how our cationic peptide eliminates bacteria, we must consider its effect on the outer membrane found in Gram-negative bacteria. Here, we use atomic force microscopy (AFM) to directly investigate K4S4(1-16) interactions with the outer membrane of A. baumannii and characterize the biophysical consequences of K4S4(1-16) treatment. However, Gram-negative bacteria are complex organisms, with two membranes and molecular machinery dedicated to maintaining membrane stability. The images show the morphology of a clinical strain of A. baumannii before and after treatment with the derivative. […] The cell differed considerably from the cocci-bacilli-shaped cell observed without peptide treatment. Therefore, this cationic peptide appears to have a highly disruptive effect. […]
With the objective of observing possible morphological alterations caused by the action of an active peptide from the DRS families, bacterial growth control and bacteria treated with K4S4 (1-16) were evaluated using Atomic Force Microscopy (AFM). […]
Statistical analyses were performed with the GraphPad Prism 9.0 software (GraphPad Software Inc.) for cell viability assays. The difference between the average roughness (Ra) was statistically analyzed using t Test in the GraphPad Prism 8.0 software. […]

## ALWKTLLKKVLKAAAKAALKAVLVGANA [K4K20S4]
[1]
  A. baumannii MIC: 3.125 µg/mL
[2]
  A. baumannii MBC: 6.25 µg/mL

## GLWSKIKEVGKEAAKAAAKAAGKAALGAVSEAV-OH [B2]
[1]
  A. baumannii MIC: 12.5 µg/mL
[2]
  A. baumannii MBC: 25 µg/mL

## C[C@@H](O)[C@H]1C(=O)N2C(C(=O)O)=C(S[C@@H]3CN[C@H](C(=O)N(C)C)C3)[C@H](C)[C@H]12 [meropenem]
[1]; Acinetobacter baumannii, 24 h, read-out: A. baumannii MIC
  MIC: 32 µg/mL (≈ 83.4 µM)
[2]; Acinetobacter baumannii, read-out: A. baumannii MBC
  MBC: 64 µg/mL (≈ 167 µM)

## ALWMTLLKKVLKAAAKAALNAVLVGANA-OH [S4]
[1]
  A. baumannii MIC: 12.5 µg/mL
[2]
  A. baumannii MBC: 25 µg/mL
HEp-2 cells [3]
  maximal non-cytotoxic concentration: 16 µg/mL
[4]
  hemolytic effect: potent hemolytic effect

## lactoferricin (17–30): other AMP from the literature (CLAAPRKNVRWCTI; ends and bridges not checked; cysteine pairing not given here; UniProt P24627 17-30, looked up, fragment)
[5]; 1X and 2X MIC
  cytotoxicity at lower concentrations: negligible cytotoxicity
[5]; 4X MIC
  cytotoxicity at 4X MIC: slightly higher cytotoxicity
[6]
  MIC: 128 µg/mL

## ALWKTLLKKVLKAAAK [K4S4(1-16)]
HEp-2 cells [7]
  CC50 Hep-2 Cells: 68.9 µg/mL
[1]
  A. baumannii MIC: 6.25 µg/mL
[2]
  A. baumannii MBC: 12.5 µg/mL
A. baumannii MDR
  roughness on the cell surface after treatment: 43.41 nm

## GLKKKIKEVGKEAAKAAAKAAGKAALGAVSEAV [K3K4B2]
[1]
  A. baumannii MIC: 6.25 µg/mL
[2]
  A. baumannii MBC: 12.5 µg/mL
